Source: article PMC8164802, “Biological evaluation of Safrole oil and Safrole oil Nanoemulgel as antioxidant, antidiabetic, antibacterial, antifungal and anticancer” (BMC Complementary Medicine and Therapies, 2021)

Biological target: T1, porcine pancreatic α-amylase (Sus scrofa, UniProt P00690)
T1 construct: gene AMY2
Assay: DNSA colorimetric assay of starch hydrolysis, […] nm
Format: biochemical

T1 sequence (P00690 16-511): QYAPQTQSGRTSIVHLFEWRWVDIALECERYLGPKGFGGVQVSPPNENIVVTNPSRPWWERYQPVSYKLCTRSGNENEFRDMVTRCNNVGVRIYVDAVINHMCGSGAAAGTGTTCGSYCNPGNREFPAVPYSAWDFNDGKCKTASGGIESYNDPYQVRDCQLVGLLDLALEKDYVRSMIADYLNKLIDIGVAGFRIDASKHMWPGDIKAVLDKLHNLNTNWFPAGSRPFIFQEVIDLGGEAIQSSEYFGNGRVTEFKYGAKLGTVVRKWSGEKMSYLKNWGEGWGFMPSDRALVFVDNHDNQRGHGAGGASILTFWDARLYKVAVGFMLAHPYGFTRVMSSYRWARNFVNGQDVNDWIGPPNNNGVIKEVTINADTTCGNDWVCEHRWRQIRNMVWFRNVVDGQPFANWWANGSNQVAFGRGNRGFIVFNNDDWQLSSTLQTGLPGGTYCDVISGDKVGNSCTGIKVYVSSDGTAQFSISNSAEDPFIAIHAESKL

SMILES: C=CCc1ccc2c(c1)OCO2 [Safrole, 1-allyl-3,4-methylenedioxybenzene]
- IC50: 70 µM
